Measurements as given in patent publication US20120270884A1, “Methods of Treating Aneurysmal Dilatation, Blood Vessel Wall Weakness and Specifically Abdominal Aortic and Thoracic Aneurysm Using Matrix Metalloprotease-2 Inhibitors” (SYMPHONY EVOLUTION, INC., priority 2009, published 2012).

Assays:
Type in all cases: biochemical
[1] = molecular target: TACE (TNF-alpha converting enzyme, ADAM-17) (Homo sapiens, UniProt P78536); experiment: In vitro metalloprotease inhibition, TACE
Description: (§1) Blank cells indicate lack of data only.

[2] = molecular target: T1, MMP-1 (Fibroblast collagenase) (Homo sapiens, UniProt P03956); experiment: In vitro metalloprotease inhibition, MMP-1
T1 sequence (P03956 100-469): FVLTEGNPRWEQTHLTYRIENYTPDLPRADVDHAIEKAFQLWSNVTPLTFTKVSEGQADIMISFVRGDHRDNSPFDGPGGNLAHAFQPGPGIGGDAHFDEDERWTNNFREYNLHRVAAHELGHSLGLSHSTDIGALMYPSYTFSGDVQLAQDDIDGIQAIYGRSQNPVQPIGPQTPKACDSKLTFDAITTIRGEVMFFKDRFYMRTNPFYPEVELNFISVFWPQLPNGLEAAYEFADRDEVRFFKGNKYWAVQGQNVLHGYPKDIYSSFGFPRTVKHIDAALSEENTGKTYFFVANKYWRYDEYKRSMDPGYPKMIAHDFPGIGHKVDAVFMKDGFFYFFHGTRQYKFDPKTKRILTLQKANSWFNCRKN
Description: as §1

[3] = molecular target: T2, MMP-2 (72 kDa gelatinase, gelatinase A) (Homo sapiens, UniProt P08253); experiment: In vitro metalloprotease inhibition, MMP-2
T2 sequence (P08253 110-660): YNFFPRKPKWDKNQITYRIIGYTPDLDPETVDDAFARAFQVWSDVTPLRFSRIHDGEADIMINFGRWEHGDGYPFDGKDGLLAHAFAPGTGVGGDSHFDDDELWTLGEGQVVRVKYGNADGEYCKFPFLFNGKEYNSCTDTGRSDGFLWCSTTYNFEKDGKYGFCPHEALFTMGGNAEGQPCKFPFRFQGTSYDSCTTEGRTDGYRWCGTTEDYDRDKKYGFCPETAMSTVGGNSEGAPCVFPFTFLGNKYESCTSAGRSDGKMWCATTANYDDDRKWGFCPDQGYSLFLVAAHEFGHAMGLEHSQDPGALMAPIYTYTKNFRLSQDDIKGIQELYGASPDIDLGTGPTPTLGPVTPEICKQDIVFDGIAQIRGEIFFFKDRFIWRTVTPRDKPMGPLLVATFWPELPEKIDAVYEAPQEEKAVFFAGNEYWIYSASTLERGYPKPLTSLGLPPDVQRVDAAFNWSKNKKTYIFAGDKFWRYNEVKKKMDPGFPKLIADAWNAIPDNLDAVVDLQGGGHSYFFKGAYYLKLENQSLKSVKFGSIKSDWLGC

MMP-3 (Stromelysin-1) = MMP-3 (Stromelysin-1) (Homo sapiens, UniProt P08254); experiment: In vitro metalloprotease inhibition, MMP-3
Chain of MMP-3 (Stromelysin-1) (P08254 100-477, species assumed): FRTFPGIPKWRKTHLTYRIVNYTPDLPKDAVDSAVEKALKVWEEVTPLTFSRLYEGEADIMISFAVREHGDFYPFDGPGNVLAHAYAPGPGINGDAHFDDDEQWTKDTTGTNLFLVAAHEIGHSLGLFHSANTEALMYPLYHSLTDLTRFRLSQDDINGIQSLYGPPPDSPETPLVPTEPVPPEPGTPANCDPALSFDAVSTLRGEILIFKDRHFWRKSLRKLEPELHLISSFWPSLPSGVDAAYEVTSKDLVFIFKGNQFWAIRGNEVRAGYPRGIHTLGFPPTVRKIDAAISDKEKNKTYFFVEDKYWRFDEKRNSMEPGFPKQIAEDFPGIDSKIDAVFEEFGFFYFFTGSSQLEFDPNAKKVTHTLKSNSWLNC
Description: as §1

MMP-13 (collagenase-3) = MMP-13 (collagenase-3) (Homo sapiens, UniProt P45452); experiment: In vitro metalloprotease inhibition, MMP-13

Chain of TACE (TNF-alpha converting enzyme, ADAM-17) (P78536 215-824): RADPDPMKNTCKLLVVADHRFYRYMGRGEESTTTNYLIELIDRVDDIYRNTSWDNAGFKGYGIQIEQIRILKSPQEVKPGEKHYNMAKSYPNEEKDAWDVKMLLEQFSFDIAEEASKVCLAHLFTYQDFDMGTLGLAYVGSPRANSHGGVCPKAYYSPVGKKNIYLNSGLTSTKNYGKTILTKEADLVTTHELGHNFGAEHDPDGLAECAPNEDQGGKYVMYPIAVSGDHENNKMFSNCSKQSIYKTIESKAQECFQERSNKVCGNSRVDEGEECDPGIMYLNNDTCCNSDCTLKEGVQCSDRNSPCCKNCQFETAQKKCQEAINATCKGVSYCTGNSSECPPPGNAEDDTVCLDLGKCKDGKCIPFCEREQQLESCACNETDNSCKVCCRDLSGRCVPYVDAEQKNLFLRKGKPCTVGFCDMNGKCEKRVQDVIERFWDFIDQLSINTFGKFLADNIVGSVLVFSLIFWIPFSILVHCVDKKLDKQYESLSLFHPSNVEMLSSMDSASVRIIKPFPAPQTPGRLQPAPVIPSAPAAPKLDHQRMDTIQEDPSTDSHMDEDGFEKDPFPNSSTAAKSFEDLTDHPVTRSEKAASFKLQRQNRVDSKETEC

O=C(NO)[C@H]1CN(S(=O)(=O)NC(=O)N2CCCCC2)CCN1S(=O)(=O)c1cc(F)c(Oc2ccc(Cl)cc2)c(F)c1 [Entry 37]
IC50 [1]: 50 to 1000 nM | IC50 [2]: 1000 to 20000 nM | IC50 [3]: < 50 nM | IC50 (MMP-3 (Stromelysin-1)): < 50 nM | IC50 (MMP-13 (collagenase-3)): < 50 nM

CN(C)CCS(=O)(=O)N1CCN(S(=O)(=O)c2cc(F)c(Oc3ccc(Cl)cc3)c(F)c2)[C@@H](C(=O)NO)C1 [Entry 54]
IC50 [1]: < 50 nM | IC50 [2]: 50 to 1000 nM | IC50 [3]: < 50 nM | IC50 (MMP-3 (Stromelysin-1)): < 50 nM | IC50 (MMP-13 (collagenase-3)): < 50 nM

O=C(NO)[C@H]1CN(S(=O)(=O)NC(=O)N2CCOCC2)CCN1S(=O)(=O)c1cc(F)c(Oc2ccc(Cl)cc2)c(F)c1 [Entry 38]
IC50 [1]: 50 to 1000 nM | IC50 [2]: 1000 to 20000 nM | IC50 [3]: < 50 nM | IC50 (MMP-3 (Stromelysin-1)): < 50 nM | IC50 (MMP-13 (collagenase-3)): < 50 nM

O=C(NO)[C@H]1CN(C(=O)c2cccnc2)CCN1S(=O)(=O)c1cc(F)c(Oc2ccc(Cl)cc2)c(F)c1 [Entry 59]
IC50 [1]: 50 to 1000 nM | IC50 [2]: 1000 to 20000 nM | IC50 [3]: < 50 nM | IC50 (MMP-3 (Stromelysin-1)): 50 to 1000 nM | IC50 (MMP-13 (collagenase-3)): < 50 nM

CCCC(CCC)C(=O)N1CCN(S(=O)(=O)c2cc(F)c(Oc3ccc(Cl)cc3)c(F)c2)[C@@H](C(=O)NO)C1 [Entry 44]
IC50 [2]: > 20000 nM | IC50 [3]: < 50 nM | IC50 (MMP-3 (Stromelysin-1)): 1000 to 20000 nM | IC50 (MMP-13 (collagenase-3)): 50 to 1000 nM

CN(C)c1ccc2c(S(=O)(=O)N3CCN(S(=O)(=O)c4cc(F)c(Oc5ccc(Cl)cc5)c(F)c4)[C@@H](C(=O)NO)C3)cccc2c1 [Entry 49]
IC50 [2]: > 20000 nM | IC50 [3]: < 50 nM | IC50 (MMP-3 (Stromelysin-1)): 50 to 1000 nM | IC50 (MMP-13 (collagenase-3)): < 50 nM

O=C(NO)[C@H]1CN(C(=O)C(=O)N2CCOCC2)CCN1S(=O)(=O)c1cc(F)c(Oc2ccc(Cl)cc2)c(F)c1 [Entry 31]
IC50 [1]: 50 to 1000 nM | IC50 [2]: 1000 to 20000 nM | IC50 [3]: < 50 nM | IC50 (MMP-3 (Stromelysin-1)): 50 to 1000 nM | IC50 (MMP-13 (collagenase-3)): < 50 nM

COCCN1CCN(S(=O)(=O)c2cc(F)c(Oc3ccc(Cl)cc3)c(F)c2)[C@@H](C(=O)NO)C1 [Entry 29]
IC50 [2]: 1000 to 20000 nM | IC50 [3]: < 50 nM | IC50 (MMP-3 (Stromelysin-1)): 50 to 1000 nM | IC50 (MMP-13 (collagenase-3)): < 50 nM

O=C(NO)[C@H]1CN(C(=O)N2CCOCC2)CCN1S(=O)(=O)c1ccc(Oc2ccc(Cl)cc2)c(F)c1 [Entry 6]
IC50 [2]: 50 to 1000 nM | IC50 [3]: < 50 nM | IC50 (MMP-3 (Stromelysin-1)): < 50 nM | IC50 (MMP-13 (collagenase-3)): < 50 nM

COCCOC(=O)N1CCN(S(=O)(=O)c2ccc(Oc3ccc4c(c3)CCCC4)nc2)[C@@H](C(=O)NO)C1 [Entry 64]
IC50 [2]: 50 to 1000 nM | IC50 [3]: < 50 nM | IC50 (MMP-3 (Stromelysin-1)): < 50 nM | IC50 (MMP-13 (collagenase-3)): < 50 nM

CN1CCN(CCS(=O)(=O)N2CCN(S(=O)(=O)c3cc(F)c(Oc4ccc(Cl)cc4)c(F)c3)[C@@H](C(=O)NO)C2)CC1 [Entry 55]
IC50 [2]: 1000 to 20000 nM | IC50 [3]: < 50 nM | IC50 (MMP-3 (Stromelysin-1)): 50 to 1000 nM | IC50 (MMP-13 (collagenase-3)): < 50 nM

O=C(NO)[C@H]1CN(C(=O)c2ccc(-c3ccccc3)cc2)CCN1S(=O)(=O)c1cc(F)c(Oc2ccc(Cl)cc2)c(F)c1 [Entry 51]
IC50 [2]: 1000 to 20000 nM | IC50 [3]: 50 to 1000 nM | IC50 (MMP-3 (Stromelysin-1)): 1000 to 20000 nM | IC50 (MMP-13 (collagenase-3)): 50 to 1000 nM

O=C(O)CN1CCN(S(=O)(=O)c2cc(F)c(Oc3ccc(Cl)cc3)c(F)c2)[C@@H](C(=O)NO)C1 [Entry 63]
IC50 [2]: > 20000 nM | IC50 [3]: 50 to 1000 nM | IC50 (MMP-3 (Stromelysin-1)): 1000 to 20000 nM | IC50 (MMP-13 (collagenase-3)): 50 to 1000 nM

COCCOC(=O)N1CCN(S(=O)(=O)c2ccc(Oc3ccc(F)cc3)cc2)[C@@H](C(=O)NO)C1 [Entry 1]
IC50 [2]: < 50 nM | IC50 [3]: < 50 nM | IC50 (MMP-3 (Stromelysin-1)): < 50 nM | IC50 (MMP-13 (collagenase-3)): < 50 nM

CN(C)S(=O)(=O)N1CCN(S(=O)(=O)c2cc(F)c(Oc3ccc(Cl)cc3)c(F)c2)[C@@H](C(=O)NO)C1 [Entry 36]
IC50 [2]: 1000 to 20000 nM | IC50 [3]: < 50 nM | IC50 (MMP-3 (Stromelysin-1)): 50 to 1000 nM | IC50 (MMP-13 (collagenase-3)): < 50 nM

CN1CCC(OC(=O)N2CCN(S(=O)(=O)c3cc(F)c(Oc4ccc(Cl)cc4)c(F)c3)[C@@H](C(=O)NO)C2)CC1 [Entry 22]
IC50 [2]: 1000 to 20000 nM | IC50 [3]: < 50 nM | IC50 (MMP-3 (Stromelysin-1)): 50 to 1000 nM | IC50 (MMP-13 (collagenase-3)): < 50 nM

O=C(NO)[C@H]1CN(CC(=O)N2CCCC2)CCN1S(=O)(=O)c1cc(F)c(Oc2ccc(Cl)cc2)c(F)c1 [Entry 21]
IC50 [2]: > 20000 nM | IC50 [3]: < 50 nM | IC50 (MMP-3 (Stromelysin-1)): 1000 to 20000 nM | IC50 (MMP-13 (collagenase-3)): 50 to 1000 nM

O=C(NO)[C@H]1CN(S(=O)(=O)Cc2ccncc2)CCN1S(=O)(=O)c1cc(F)c(Oc2ccc(Cl)cc2)c(F)c1 [Entry 34]
IC50 [1]: < 50 nM | IC50 [2]: 1000 to 20000 nM | IC50 [3]: < 50 nM | IC50 (MMP-3 (Stromelysin-1)): 50 to 1000 nM | IC50 (MMP-13 (collagenase-3)): < 50 nM

O=C(NO)[C@H]1CN(C(=O)Cc2ccncc2)CCN1S(=O)(=O)c1cc(F)c(Oc2ccc(Cl)cc2)c(F)c1 [Entry 52]
IC50 [2]: 1000 to 20000 nM | IC50 [3]: < 50 nM | IC50 (MMP-3 (Stromelysin-1)): 1000 to 20000 nM | IC50 (MMP-13 (collagenase-3)): < 50 nM

O=C(NO)[C@H]1CN(C(=O)CN2CCCCC2)CCN1S(=O)(=O)c1cc(F)c(Oc2ccc(Cl)cc2)c(F)c1 [Entry 26]
IC50 [2]: > 20000 nM | IC50 [3]: < 50 nM | IC50 (MMP-3 (Stromelysin-1)): 1000 to 20000 nM | IC50 (MMP-13 (collagenase-3)): < 50 nM

CN(C)c1cccc2c(S(=O)(=O)N3CCN(S(=O)(=O)c4cc(F)c(Oc5ccc(Cl)cc5)c(F)c4)[C@@H](C(=O)NO)C3)cccc12 [Entry 60]
IC50 [2]: > 20000 nM | IC50 [3]: < 50 nM | IC50 (MMP-3 (Stromelysin-1)): 1000 to 20000 nM | IC50 (MMP-13 (collagenase-3)): < 50 nM

O=C(NO)[C@H]1CN(S(=O)(=O)c2cccnc2O)CCN1S(=O)(=O)c1cc(F)c(Oc2ccc(Cl)cc2)c(F)c1 [Entry 45]
IC50 [1]: 50 to 1000 nM | IC50 [2]: 1000 to 20000 nM | IC50 [3]: < 50 nM | IC50 (MMP-3 (Stromelysin-1)): 50 to 1000 nM | IC50 (MMP-13 (collagenase-3)): < 50 nM

CN(C)c1ccc2ccc(S(=O)(=O)N3CCN(S(=O)(=O)c4cc(F)c(Oc5ccc(Cl)cc5)c(F)c4)[C@@H](C(=O)NO)C3)cc2c1 [Entry 50]
IC50 [2]: > 20000 nM | IC50 [3]: > 20000 nM | IC50 (MMP-3 (Stromelysin-1)): 50 to 1000 nM | IC50 (MMP-13 (collagenase-3)): < 50 nM

C=CCN1CCN(S(=O)(=O)c2cc(F)c(Oc3ccc(Cl)cc3)c(F)c2)[C@@H](C(=O)NO)C1 [Entry 62]
IC50 [2]: > 20000 nM | IC50 [3]: < 50 nM | IC50 (MMP-3 (Stromelysin-1)): 1000 to 20000 nM | IC50 (MMP-13 (collagenase-3)): < 50 nM

CN(C)C(=O)CN1CCN(S(=O)(=O)c2cc(F)c(Oc3ccc(Cl)cc3)c(F)c2)[C@@H](C(=O)NO)C1 [Entry 20]
IC50 [2]: > 20000 nM | IC50 [3]: < 50 nM | IC50 (MMP-3 (Stromelysin-1)): 1000 to 20000 nM | IC50 (MMP-13 (collagenase-3)): < 50 nM

COCCOC(=O)N1CCN(S(=O)(=O)c2cc(F)c(Oc3ccc(F)cc3)c(F)c2)[C@@H](C(=O)NO)C1 [Entry 10]
IC50 [2]: 1000 to 20000 nM | IC50 [3]: < 50 nM | IC50 (MMP-3 (Stromelysin-1)): 1000 to 20000 nM | IC50 (MMP-13 (collagenase-3)): < 50 nM
